In ChEMBL document CHEMBL5055673, “Direct evidence of edge-to-face CH/π interaction for PAR-1 thrombin receptor activation” (Bioorg Med Chem, 2021):
Numbered stars: 1 amine (or outer) side, 2 acyl side, 3 side chain; on linkers, the order of the positions; unused ones are H or OH. Square brackets hold non-standard residues; d marks the D form. Peptide text beside a SMILES is read from it. Phe(3,4,5-F3) = N[C@@H](Cc1cc(F)c(F)c(F)c1)C(=O)O; Phe(F5) = N[C@@H](Cc1c(F)c(F)c(F)c(F)c1F)C(=O)O; X1 = O=C([C@H](Cc1c(F)c(F)cc(F)c1F)N[*:1])[*:2]; X2 = O=C([C@H](Cc1c(F)cc(F)c(F)c1F)N[*:1])[*:2]; X3 = O=C([C@H](Cc1cc(F)c(F)c(F)c1F)N[*:1])[*:2]; Phe(3,5-F2) = N[C@@H](Cc1cc(F)cc(F)c1)C(=O)O; X4 = O=C([C@H](Cc1ccc(F)c(F)c1F)N[*:1])[*:2]; X5 = O=C([C@H](Cc1cc(F)c(F)cc1F)N[*:1])[*:2]; X7 = O=C([C@H](Cc1c(F)cc(F)cc1F)N[*:1])[*:2]; Phe(2,6-F2) = N[C@@H](Cc1c(F)cccc1F)C(=O)O; X6 = O=C([C@H](Cc1cc(F)ccc1F)N[*:1])[*:2]; Phe(4-F) = N[C@@H](Cc1ccc(F)cc1)C(=O)O; Cha = N[C@@H](CC1CCCCC1)C(=O)O

What was measured:
[1] = biological target: T1, Proteinase-activated receptor 1 (Homo sapiens, UniProt P25116); test: Activation of PAR-1 in human platelet-rich plasma assessed as induction of platelet aggregation by turbidimetric method
T1 sequence (P25116 whole entry): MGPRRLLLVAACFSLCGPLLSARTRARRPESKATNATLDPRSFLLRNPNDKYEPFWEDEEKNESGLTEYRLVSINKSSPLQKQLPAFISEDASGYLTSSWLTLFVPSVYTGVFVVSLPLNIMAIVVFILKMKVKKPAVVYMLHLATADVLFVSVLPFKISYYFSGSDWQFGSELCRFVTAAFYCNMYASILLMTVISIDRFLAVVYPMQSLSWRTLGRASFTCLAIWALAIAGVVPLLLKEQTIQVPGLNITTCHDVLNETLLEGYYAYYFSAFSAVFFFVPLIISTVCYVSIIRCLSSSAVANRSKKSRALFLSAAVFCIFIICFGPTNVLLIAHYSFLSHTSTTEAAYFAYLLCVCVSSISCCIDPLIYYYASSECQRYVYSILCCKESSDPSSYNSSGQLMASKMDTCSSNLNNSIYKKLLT

[2] = biological target: T2, Proteinase-activated receptor 1 (Homo sapiens) (UniProt P25116); test: Activation of PAR-1 in human platelet-rich plasma assessed as induction of platelet aggregation by turbidimetric method relative to S/Phe/FLLRNP; assay type: cell-based
T2 sequence (whole entry): T1 sequence (P25116 whole entry)

Homo sapiens [3] = species on record: Homo sapiens; test: Induction of platelet aggregation in human platelet-rich plasma assessed as increase in transmissivity by turbidimetric method; assay type: functional
Homo sapiens [4] = species on record: Homo sapiens; test: Induction of platelet aggregation in human platelet-rich plasma assessed as decrease in turbidity by turbidimetric method; assay type: functional

Row | Compound | Activity [2] [%] | Activity ([2]; filed as activator) [%] | further results
1 | H-SALLRNP-NH2 | 0 |  | EC50 [1]: Not Active
2 | CC(C)C[C@H](NC(=O)[C@H](Cc1cc(F)ccc1F)NC(=O)[C@@H](N)CO)C(=O)N[C@@H](CC(C)C)C(=O)N[C@@H](CC(N)=O)C(=O)N1CCC[C@H]1C(N)=O (H-S[X6]LLNP-NH2) | 35 |  | 
3 | H-SFLLNP-NH2 |  | 100 | 
4 | CC(C)C[C@H](NC(=O)[C@H](Cc1c(F)cc(F)c(F)c1F)NC(=O)[C@@H](N)CO)C(=O)N[C@@H](CC(C)C)C(=O)N[C@@H](CC(N)=O)C(=O)N1CCC[C@H]1C(N)=O (H-S[X2]LLNP-NH2) | 34 |  | 
5 | CC(C)C[C@H](NC(=O)[C@H](Cc1c(F)cccc1F)NC(=O)[C@@H](N)CO)C(=O)N[C@@H](CC(C)C)C(=O)N[C@@H](CC(N)=O)C(=O)N1CCC[C@H]1C(N)=O (H-S[Phe(2,6-F2)]LLNP-NH2) | 11 |  | 
6 | CC(C)C[C@H](NC(=O)[C@H](Cc1c(F)cc(F)cc1F)NC(=O)[C@@H](N)CO)C(=O)N[C@@H](CC(C)C)C(=O)N[C@@H](CC(N)=O)C(=O)N1CCC[C@H]1C(N)=O (H-S[X7]LLNP-NH2) |  | 49 | 
7 | CC(C)C[C@H](NC(=O)[C@H](Cc1ccc(F)cc1)NC(=O)[C@@H](N)CO)C(=O)N[C@@H](CC(C)C)C(=O)N[C@@H](CC(N)=O)C(=O)N1CCC[C@H]1C(N)=O (H-S[Phe(4-F)]LLNP-NH2) |  | 250 | 
8 | CC(C)C[C@H](NC(=O)[C@H](Cc1cc(F)c(F)c(F)c1)NC(=O)[C@@H](N)CO)C(=O)N[C@@H](CC(C)C)C(=O)N[C@@H](CC(N)=O)C(=O)N1CCC[C@H]1C(N)=O (H-S[Phe(3,4,5-F3)]LLNP-NH2) | 16 |  | 
9 | CC(C)C[C@H](NC(=O)[C@H](CC(C)C)NC(=O)[C@H](Cc1c(F)c(F)cc(F)c1F)NC(=O)[C@@H](N)CO)C(=O)N[C@@H](CCCNC(=N)N)C(=O)N[C@@H](CC(N)=O)C(=O)N1CCC[C@H]1C(N)=O (H-S[X1]LLRNP-NH2) | 0 |  | EC50 [1]: Not Active
10 | CC(C)C[C@H](NC(=O)[C@H](CC(C)C)NC(=O)[C@H](Cc1cc(F)c(F)c(F)c1F)NC(=O)[C@@H](N)CO)C(=O)N[C@@H](CCCNC(=N)N)C(=O)N[C@@H](CC(N)=O)C(=O)N1CCC[C@H]1C(N)=O (H-S[X3]LLRNP-NH2) | 6 |  | 
11 | CC(C)C[C@H](NC(=O)[C@H](Cc1cc(F)c(F)cc1F)NC(=O)[C@@H](N)CO)C(=O)N[C@@H](CC(C)C)C(=O)N[C@@H](CC(N)=O)C(=O)N1CCC[C@H]1C(N)=O (H-S[X5]LLNP-NH2) |  | 180 | 
12 | CC(C)C[C@H](NC(=O)[C@H](CC(C)C)NC(=O)[C@H](Cc1c(F)cc(F)c(F)c1F)NC(=O)[C@@H](N)CO)C(=O)N[C@@H](CCCNC(=N)N)C(=O)N[C@@H](CC(N)=O)C(=O)N1CCC[C@H]1C(N)=O (H-S[X2]LLRNP-NH2) | 34 |  | 
13 | CC(C)C[C@H](NC(=O)[C@H](Cc1cc(F)c(F)c(F)c1F)NC(=O)[C@@H](N)CO)C(=O)N[C@@H](CC(C)C)C(=O)N[C@@H](CC(N)=O)C(=O)N1CCC[C@H]1C(N)=O (H-S[X3]LLNP-NH2) | 6 |  | 
14 | CC(C)C[C@H](NC(=O)[C@H](Cc1c(F)c(F)c(F)c(F)c1F)NC(=O)[C@@H](N)CO)C(=O)N[C@@H](CC(C)C)C(=O)N[C@@H](CC(N)=O)C(=O)N1CCC[C@H]1C(N)=O (H-S[Phe(F5)]LLNP-NH2) | 0 |  | 
15 | CC(C)C[C@H](NC(=O)[C@H](CC(C)C)NC(=O)[C@H](CC1CCCCC1)NC(=O)[C@@H](N)CO)C(=O)N[C@@H](CCCNC(=N)N)C(=O)N[C@@H](CC(N)=O)C(=O)N1CCC[C@H]1C(N)=O (H-S[Cha]LLRNP-NH2) | 3 |  | 
16 | H-SFLLRNP-NH2 |  | 100 | Activity (Homo sapiens [3]): Dose-dependent effect; Activity (Homo sapiens [4]): Dose-dependent effect
17 | CC(C)C[C@H](NC(=O)[C@H](Cc1ccc(F)c(F)c1F)NC(=O)[C@@H](N)CO)C(=O)N[C@@H](CC(C)C)C(=O)N[C@@H](CC(N)=O)C(=O)N1CCC[C@H]1C(N)=O (H-S[X4]LLNP-NH2) |  | 98 | 
18 | CC(C)C[C@H](NC(=O)[C@H](Cc1cc(F)cc(F)c1)NC(=O)[C@@H](N)CO)C(=O)N[C@@H](CC(C)C)C(=O)N[C@@H](CC(N)=O)C(=O)N1CCC[C@H]1C(N)=O (H-S[Phe(3,5-F2)]LLNP-NH2) | 11 |  | 
19 | CC(C)C[C@H](NC(=O)[C@H](CC(C)C)NC(=O)[C@H](Cc1c(F)c(F)c(F)c(F)c1F)NC(=O)[C@@H](N)CO)C(=O)N[C@@H](CCCNC(=N)N)C(=O)N[C@@H](CC(N)=O)C(=O)N1CCC[C@H]1C(N)=O (H-S[Phe(F5)]LLRNP-NH2) | 0 |  | EC50 [1]: Not Active
